Results as given in PMC4256409, “Role of Phenylalanine and Valine^10 Residues in the Antimicrobial Activity and Cytotoxicity of Piscidin-1” (PLoS ONE, 2014).
Where no end group is shown, it is not given here.

Experiments:
[1] = test system: MDRAB CCARM 12036; type: cell-based, multidrug-resistant Acinetobacter baumanii; conditions: broth microdilution, 37°C, 16 h, three independent experiments in triplicate, SD 14.0%
[2] = test system: MDRST CCARM 8009; type: cell-based, multidrug-resistant S. typhimurium; conditions: broth microdilution, 37°C, 16 h, three independent experiments in triplicate, SD 14.0%
[3] = test system: S. aureus KCTC3881; type: cell-based, Staphylococcus aureus; conditions: S. aureus KCTC3881; broth microdilution, 37°C, 16 h; three independent experiments in triplicate, SD 14.0%
[4] = test system: E.coli KCTC2571; type: cell-based, Escherichia coli; conditions: E.coli KCTC2571; broth microdilution, 37°C, 16 h; three independent experiments in triplicate, SD 14.0%
[5] = test system: Drug-resistant bacterial strains; conditions: average over the 18 drug-resistant bacterial strains of Table 3
From the text: Escherichia coli KCTC 1682, E. coli KCTC 2593, E. coli KCTC 2571, Salmonella typhimurium KCTC 1926, Pseudomonas aeruginosa KCTC 1637, P. aeruginosa KCTC 2004, P. aeruginosa KCTC 2513, Bacillus subtilis KCTC 3068, B. subtilis KCTC 1021, B. subtilis KCTC 1022, Staphylococcus epidermidis KCTC 1917, Staphylococcus aureus KCTC 1621, S. aureus KCTC 1916, and S. aureus KCTC 3881 were purchased from the Korean Collection for Type Cultures, Korea Research Institute of Bioscience & Biotechnology (Taejon, Korea). Methicillin-resistant S. aureus (MRSA) (CCARM 3089, CCARM 3090, CCARM 3108, CCARM 3114, and CCARM 3126), multidrug-resistant E. coli (MDREC) (CCARM 1229 and CCARM 1238), multidrug-resistant S. typhimurium (MDRST) (CCARM 8003, CCARM 8007, and CCARM 8009), multidrug-resistant Acinetobacter baumanii (MDRAB) (CCARM 12005, CCARM 12035, CCARM 12036, CCARM 12037), and multidrug-resistant P. aeruginosa (MDRPA) (CCARM 2002, CCARM 2003, CCARM 2095, and CCARM 2163) were obtained from the Culture Collection of Antibiotic-Resistant Microbes (CCARM) at Seoul Women’s University in Korea. The antimicrobial activities of the peptides against selected organisms, including three Gram-positive, three Gram-negative, and five antibiotic-resistant bacteria, were determined using a broth microdilution assay. Briefly, single colonies of bacteria and fungi were inoculated into Luria-Bertani (LB) medium and cultured overnight at 37°C. An aliquot of the culture was transferred to 10 mL of fresh LB and incubated for an additional 3–5 h at 37°C until it reached the mid-logarithmic phase. Two-fold serial dilutions of the peptides in 1% peptone were prepared. The serial dilutions (100 µL) were added to 100 µL of cells (2×10^6 colony-forming units (CFU)/mL) in 96-well microtiter plates and incubated at 37°C for 16 h. […] MIC values were calculated as the average of triplicate measurements from three independent assays.

[6] = test system: P. aeruginosa KCTC1637; type: cell-based, Pseudomonas aeruginosa; conditions: P. aeruginosa KCTC1637; broth microdilution, 37°C, 16 h; three independent experiments in triplicate, SD 14.0%
[7] = test system: MDRAB CCARM 12037; type: cell-based, multidrug-resistant Acinetobacter baumanii; conditions: broth microdilution, 37°C, 16 h, three independent experiments in triplicate, SD 14.0%
[8] = test system: P. aeruginosa KCTC2513; type: cell-based, Pseudomonas aeruginosa; conditions: P. aeruginosa KCTC2513; broth microdilution, 37°C, 16 h; three independent experiments in triplicate, SD 14.0%
[9] = test system: E. coli KCTC1682; type: cell-based, Escherichia coli; conditions: E. coli KCTC1682; broth microdilution, 37°C, 16 h; three independent experiments in triplicate, SD 14.0%
[10] = test system: MRSA CCARM3089; type: cell-based, Methicillin-resistant S. aureus; conditions: MRSA CCARM3089; broth microdilution, 37°C, 16 h; three independent experiments in triplicate, SD 14.0%
[11] = test system: E. coli KCTC2593; type: cell-based, Escherichia coli; conditions: E. coli KCTC2593; broth microdilution, 37°C, 16 h; three independent experiments in triplicate, SD 14.0%
[12] = test system: S. typhimurium KCTC1926; type: cell-based, Salmonella typhimurium; conditions: S. typhimurium KCTC1926; broth microdilution, 37°C, 16 h; three independent experiments in triplicate, SD 14.0%
[13] = test system: MDREC CCARM 1229; type: cell-based, multidrug-resistant E. coli; conditions: broth microdilution, 37°C, 16 h, three independent experiments in triplicate, SD 14.0%
[14] = test system: Standard bacterial strains; type: cell-based; conditions: average over the 14 standard bacterial strains of Table 2
[15] = test system: MDRAB CCARM 12035; type: cell-based, multidrug-resistant Acinetobacter baumanii; conditions: broth microdilution, 37°C, 16 h, three independent experiments in triplicate, SD 14.0%
[16] = test system: MDRPA CCARM 2163; type: cell-based, multidrug-resistant P. aeruginosa; conditions: broth microdilution, 37°C, 16 h, three independent experiments in triplicate, SD 14.0%
[17] = test system: MDRPA CCARM 2002; type: cell-based, multidrug-resistant P. aeruginosa; conditions: broth microdilution, 37°C, 16 h, three independent experiments in triplicate, SD 14.0%
[18] = test system: MDREC CCARM 1238; type: cell-based, multidrug-resistant E. coli; conditions: broth microdilution, 37°C, 16 h, three independent experiments in triplicate, SD 14.0%
[19] = test system: MRSA CCARM 3090; type: cell-based, Methicillin-resistant S. aureus; conditions: MRSA CCARM 3090; broth microdilution, 37°C, 16 h; three independent experiments in triplicate, SD 14.0%
[20] = test system: B. subtilis KCTC1022; type: cell-based, Bacillus subtilis; conditions: B. subtilis KCTC1022; broth microdilution, 37°C, 16 h; three independent experiments in triplicate, SD 14.0%
[21] = test system: MRSA CCARM 3108; type: cell-based, Methicillin-resistant S. aureus; conditions: MRSA CCARM 3108; broth microdilution, 37°C, 16 h; three independent experiments in triplicate, SD 14.0%
[22] = test system: MDRST CCARM 8003; type: cell-based, multidrug-resistant S. typhimurium; conditions: broth microdilution, 37°C, 16 h, three independent experiments in triplicate, SD 14.0%

Sequence: FFHHIFRGIVHVGKTIHRLVTG [Pis-1, reference compound]
- MIC [1]: 2.0 µM
- MIC [2]: 4.0 µM
- MIC [3]: 2.0 µM
- MIC [4]: 1.0 µM
- Average MIC [5]: 3.6 µM
- MIC [6]: 2.0 µM
- MIC [7]: 2.0 µM
- MIC [8]: 2.0 µM
- MIC [9]: 1.0 µM
- MIC [10]: 8.0 µM
- MIC [11]: 1.0 µM
- MIC [12]: 2.0 µM
- MIC [13]: 4.0 µM
- Average MIC [14]: 1.5 µM
- MIC [15]: 2.0 µM
- MIC [16]: 2.0 µM
- MIC [17]: 2.0 µM
- MIC [18]: 4.0 µM
- MIC [19]: 8.0 µM
- MIC [20]: 1.0 µM
- MIC [21]: 4.0 µM
- MIC [22]: 4.0 µM
